Data reported in the kinase profiling compilation of Christmann-Franck et al. (2016).

Columns and labels:
Test in all cases: KINOMEscan competition binding
Settings in all cases: compound 10.0 µM
[1] = molecular target: PRKACB (human) (UniProt P22694)
[2] = molecular target: TNIK (human) (UniProt Q9UKE5)
[3] = molecular target: CDK3 (human) (UniProt Q00526)
[4] = molecular target: FGFR4 (human) (UniProt P22455)
[5] = molecular target: TNNI3K (human) (UniProt Q59H18)
[6] = molecular target: EPHB1 (human) (UniProt P54762)
[7] = molecular target: FLT4 (human) (UniProt P35916)
[8] = molecular target: TSSK1B (human) (UniProt Q9BXA7)
[9] = molecular target: MAP4K2 (human) (UniProt Q12851)
[10] = molecular target: RIPK4 (human) (UniProt P57078)
[11] = molecular target: SIK1 (human) (UniProt P57059)
[12] = molecular target: NEK6 (human) (UniProt Q9HC98)
[13] = molecular target: ADCK3 (human) (UniProt Q8NI60)
[14] = molecular target: CAMK2B (human) (UniProt Q13554)
[15] = molecular target: CLK3 (human) (UniProt P49761)
[16] = molecular target: BMPR1A (human) (UniProt P36894)
[17] = molecular target: CSNK1E (human) (UniProt P49674)
[18] = molecular target: GAK (human) (UniProt O14976)
[19] = molecular target: ULK3 (human) (UniProt Q6PHR2)
[20] = molecular target: RPS6KA6 KD2 (human) (UniProt Q9UK32)
[21] = molecular target: FES (human) (UniProt P07332)
[22] = molecular target: PIM1 (human) (UniProt P11309)
[23] = molecular target: MAPKAPK2 (human) (UniProt P49137)
[24] = molecular target: TAOK1 (human) (UniProt Q7L7X3)
[25] = molecular target: CDKL2 (human) (UniProt Q92772)
[26] = molecular target: CDC42BPG (human) (UniProt Q6DT37)
[27] = molecular target: CAMK4 (human) (UniProt Q16566)
[28] = molecular target: CHEK1 (human) (UniProt O14757)
[29] = molecular target: ULK2 (human) (UniProt Q8IYT8)
[30] = molecular target: CDK5 (human) (UniProt Q00535)
[31] = molecular target: CIT (human) (UniProt O14578)
[32] = molecular target: STK25 (human) (UniProt O00506)
[33] = molecular target: CLK2 (human) (UniProt P49760)
[34] = molecular target: NEK1 (human) (UniProt Q96PY6)
[35] = molecular target: CDC2L2 (human) (UniProt Q9UQ88)
[36] = molecular target: RIPK2 (human) (UniProt O43353)
[37] = molecular target: STK10 (human) (UniProt O94804)
[38] = molecular target: RPS6KA3 KD1 (human) (UniProt P51812)
[39] = molecular target: LATS2 (human) (UniProt Q9NRM7)
[40] = molecular target: NEK2 (human) (UniProt P51955)

CDK3 (human), sequence (Q00526 whole entry, looked up): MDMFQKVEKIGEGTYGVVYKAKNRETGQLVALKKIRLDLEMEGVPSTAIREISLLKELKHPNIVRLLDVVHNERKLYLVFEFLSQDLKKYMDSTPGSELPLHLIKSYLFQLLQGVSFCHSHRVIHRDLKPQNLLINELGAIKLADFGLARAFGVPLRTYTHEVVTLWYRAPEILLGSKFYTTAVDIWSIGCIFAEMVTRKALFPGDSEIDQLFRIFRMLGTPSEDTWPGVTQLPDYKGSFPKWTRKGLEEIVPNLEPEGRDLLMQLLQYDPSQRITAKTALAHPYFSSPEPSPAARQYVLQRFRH
ULK3 (human), sequence (Q6PHR2 whole entry, looked up): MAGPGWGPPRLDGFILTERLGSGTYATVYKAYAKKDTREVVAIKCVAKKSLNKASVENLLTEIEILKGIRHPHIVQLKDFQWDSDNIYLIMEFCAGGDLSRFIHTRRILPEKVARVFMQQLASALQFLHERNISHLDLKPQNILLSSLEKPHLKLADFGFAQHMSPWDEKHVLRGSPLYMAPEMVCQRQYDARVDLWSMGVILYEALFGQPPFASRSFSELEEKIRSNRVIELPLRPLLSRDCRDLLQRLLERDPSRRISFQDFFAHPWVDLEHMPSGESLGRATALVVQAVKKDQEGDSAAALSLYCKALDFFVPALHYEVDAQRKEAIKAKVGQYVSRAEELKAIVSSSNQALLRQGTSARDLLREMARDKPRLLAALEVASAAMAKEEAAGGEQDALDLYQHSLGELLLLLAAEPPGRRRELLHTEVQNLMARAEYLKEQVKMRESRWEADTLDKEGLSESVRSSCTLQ
NEK6 (human), sequence (Q9HC98 whole entry, looked up): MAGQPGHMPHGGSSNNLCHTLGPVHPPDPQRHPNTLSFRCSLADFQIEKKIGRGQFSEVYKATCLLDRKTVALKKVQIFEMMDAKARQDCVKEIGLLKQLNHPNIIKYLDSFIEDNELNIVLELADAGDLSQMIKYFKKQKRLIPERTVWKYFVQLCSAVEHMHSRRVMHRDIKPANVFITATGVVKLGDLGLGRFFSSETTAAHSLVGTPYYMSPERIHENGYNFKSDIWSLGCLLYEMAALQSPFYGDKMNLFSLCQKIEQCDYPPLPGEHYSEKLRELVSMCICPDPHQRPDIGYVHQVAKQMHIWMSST
CDC42BPG (human), sequence (Q6DT37 whole entry, looked up): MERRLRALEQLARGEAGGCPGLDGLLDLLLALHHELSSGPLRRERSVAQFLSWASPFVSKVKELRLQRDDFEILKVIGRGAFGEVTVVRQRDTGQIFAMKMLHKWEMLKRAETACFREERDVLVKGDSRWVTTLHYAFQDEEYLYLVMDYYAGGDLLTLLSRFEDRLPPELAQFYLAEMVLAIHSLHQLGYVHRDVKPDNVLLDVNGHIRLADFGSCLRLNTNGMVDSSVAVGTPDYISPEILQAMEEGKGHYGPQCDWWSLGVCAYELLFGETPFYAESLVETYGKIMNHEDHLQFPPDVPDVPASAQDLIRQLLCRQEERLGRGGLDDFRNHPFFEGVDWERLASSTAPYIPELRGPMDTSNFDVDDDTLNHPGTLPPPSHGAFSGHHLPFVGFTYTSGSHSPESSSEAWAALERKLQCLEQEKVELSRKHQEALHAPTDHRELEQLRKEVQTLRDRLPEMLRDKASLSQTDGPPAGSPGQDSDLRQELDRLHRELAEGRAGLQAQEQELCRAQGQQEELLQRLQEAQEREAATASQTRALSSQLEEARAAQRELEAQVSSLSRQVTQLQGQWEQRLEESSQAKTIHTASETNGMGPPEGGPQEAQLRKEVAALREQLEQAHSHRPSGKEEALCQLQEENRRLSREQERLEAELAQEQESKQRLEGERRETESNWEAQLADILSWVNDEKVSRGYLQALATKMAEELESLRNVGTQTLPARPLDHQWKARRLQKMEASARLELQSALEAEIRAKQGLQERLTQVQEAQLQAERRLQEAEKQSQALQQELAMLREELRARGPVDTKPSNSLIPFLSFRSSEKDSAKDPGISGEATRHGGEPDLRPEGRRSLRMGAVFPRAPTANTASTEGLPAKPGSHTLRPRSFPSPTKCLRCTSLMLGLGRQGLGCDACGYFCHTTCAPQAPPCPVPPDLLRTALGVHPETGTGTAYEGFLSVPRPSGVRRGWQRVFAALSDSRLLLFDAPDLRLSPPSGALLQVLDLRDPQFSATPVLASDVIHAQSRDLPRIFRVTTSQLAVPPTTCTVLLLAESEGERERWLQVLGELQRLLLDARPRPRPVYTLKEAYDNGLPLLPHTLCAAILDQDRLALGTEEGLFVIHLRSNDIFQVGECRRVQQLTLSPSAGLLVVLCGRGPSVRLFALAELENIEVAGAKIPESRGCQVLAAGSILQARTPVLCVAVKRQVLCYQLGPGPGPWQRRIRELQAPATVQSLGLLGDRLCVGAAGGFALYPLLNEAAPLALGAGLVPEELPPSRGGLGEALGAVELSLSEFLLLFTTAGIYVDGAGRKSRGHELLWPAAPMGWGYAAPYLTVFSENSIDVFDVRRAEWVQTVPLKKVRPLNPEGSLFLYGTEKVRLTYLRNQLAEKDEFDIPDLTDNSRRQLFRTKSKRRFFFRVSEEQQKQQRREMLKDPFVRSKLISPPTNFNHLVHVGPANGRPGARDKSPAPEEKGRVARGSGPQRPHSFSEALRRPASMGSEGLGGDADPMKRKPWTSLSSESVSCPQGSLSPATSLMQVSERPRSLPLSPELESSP
SIK1 (human), sequence (P57059 whole entry, looked up): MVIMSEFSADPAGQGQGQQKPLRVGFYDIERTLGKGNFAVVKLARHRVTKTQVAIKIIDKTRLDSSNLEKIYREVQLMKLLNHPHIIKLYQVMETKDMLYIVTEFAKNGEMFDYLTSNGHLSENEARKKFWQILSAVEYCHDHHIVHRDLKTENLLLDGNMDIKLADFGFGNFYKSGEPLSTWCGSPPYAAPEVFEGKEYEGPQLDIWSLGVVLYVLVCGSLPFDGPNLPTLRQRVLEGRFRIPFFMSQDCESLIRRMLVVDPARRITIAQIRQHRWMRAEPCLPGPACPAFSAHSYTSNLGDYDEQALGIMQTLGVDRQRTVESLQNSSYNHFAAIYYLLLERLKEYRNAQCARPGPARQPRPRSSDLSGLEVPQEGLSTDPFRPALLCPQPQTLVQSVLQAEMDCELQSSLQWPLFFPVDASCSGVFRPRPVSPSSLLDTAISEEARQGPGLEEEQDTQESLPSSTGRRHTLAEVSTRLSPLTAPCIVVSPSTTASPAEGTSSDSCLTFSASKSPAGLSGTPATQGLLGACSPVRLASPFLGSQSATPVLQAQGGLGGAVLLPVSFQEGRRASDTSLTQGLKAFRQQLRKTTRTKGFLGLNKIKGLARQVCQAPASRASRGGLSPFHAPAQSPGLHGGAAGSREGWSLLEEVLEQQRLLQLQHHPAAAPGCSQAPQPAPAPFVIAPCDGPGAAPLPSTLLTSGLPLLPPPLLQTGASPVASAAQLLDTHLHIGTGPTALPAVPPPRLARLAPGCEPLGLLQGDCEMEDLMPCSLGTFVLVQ
TNIK (human), sequence (Q9UKE5 whole entry, looked up): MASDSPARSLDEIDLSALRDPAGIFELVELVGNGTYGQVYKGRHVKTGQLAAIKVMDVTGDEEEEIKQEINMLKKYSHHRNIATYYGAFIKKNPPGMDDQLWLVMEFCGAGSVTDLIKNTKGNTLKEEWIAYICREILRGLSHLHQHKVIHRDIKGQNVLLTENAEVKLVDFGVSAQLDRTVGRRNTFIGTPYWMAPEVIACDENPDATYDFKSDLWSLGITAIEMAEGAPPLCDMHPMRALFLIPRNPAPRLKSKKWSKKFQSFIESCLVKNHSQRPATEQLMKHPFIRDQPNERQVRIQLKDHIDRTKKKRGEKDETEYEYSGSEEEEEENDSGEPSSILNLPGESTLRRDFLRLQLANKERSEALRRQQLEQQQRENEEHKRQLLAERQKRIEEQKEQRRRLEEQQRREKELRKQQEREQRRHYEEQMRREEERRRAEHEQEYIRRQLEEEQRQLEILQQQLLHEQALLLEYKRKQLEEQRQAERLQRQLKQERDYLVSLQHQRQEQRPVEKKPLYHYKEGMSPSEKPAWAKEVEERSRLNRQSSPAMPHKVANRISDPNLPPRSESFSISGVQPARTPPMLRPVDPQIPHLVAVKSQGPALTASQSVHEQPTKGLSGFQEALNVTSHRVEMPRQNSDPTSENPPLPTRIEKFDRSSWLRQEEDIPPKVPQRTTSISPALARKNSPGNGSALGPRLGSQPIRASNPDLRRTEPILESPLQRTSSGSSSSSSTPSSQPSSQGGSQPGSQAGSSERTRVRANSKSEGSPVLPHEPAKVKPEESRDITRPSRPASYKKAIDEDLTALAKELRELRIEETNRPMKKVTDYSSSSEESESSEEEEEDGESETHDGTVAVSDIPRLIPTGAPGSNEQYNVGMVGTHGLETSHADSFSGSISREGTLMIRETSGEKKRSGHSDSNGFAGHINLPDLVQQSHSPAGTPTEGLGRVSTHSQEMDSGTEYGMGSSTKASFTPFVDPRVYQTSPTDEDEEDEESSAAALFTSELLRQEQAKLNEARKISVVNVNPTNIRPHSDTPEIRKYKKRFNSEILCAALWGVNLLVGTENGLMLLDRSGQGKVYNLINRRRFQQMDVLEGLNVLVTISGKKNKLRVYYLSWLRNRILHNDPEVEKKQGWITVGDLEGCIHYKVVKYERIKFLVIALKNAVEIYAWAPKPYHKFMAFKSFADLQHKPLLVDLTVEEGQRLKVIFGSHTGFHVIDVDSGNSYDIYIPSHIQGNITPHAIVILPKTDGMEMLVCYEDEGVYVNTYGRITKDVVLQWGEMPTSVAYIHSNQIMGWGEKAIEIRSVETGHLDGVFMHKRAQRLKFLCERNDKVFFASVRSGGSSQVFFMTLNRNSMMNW
CDK5 (human), sequence (Q00535 whole entry, looked up): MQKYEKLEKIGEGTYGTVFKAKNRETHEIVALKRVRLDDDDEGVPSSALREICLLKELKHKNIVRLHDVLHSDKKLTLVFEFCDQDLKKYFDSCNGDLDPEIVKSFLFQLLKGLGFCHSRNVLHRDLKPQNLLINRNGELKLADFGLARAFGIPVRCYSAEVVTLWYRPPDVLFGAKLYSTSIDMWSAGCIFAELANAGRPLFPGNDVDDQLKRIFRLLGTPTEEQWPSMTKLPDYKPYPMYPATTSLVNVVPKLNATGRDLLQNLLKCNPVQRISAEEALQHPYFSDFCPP

Compound: C=CC(=O)Nc1cc(NC(=O)c2ccc(C)c(NC(=O)c3ccno3)c2)cc(C(F)(F)F)c1
- kinase still bound, per cent of control [1]: 100%
- kinase still bound, per cent of control [2]: 100%
- kinase still bound, per cent of control [3]: 97%
- kinase still bound, per cent of control [4]: 100%
- kinase still bound, per cent of control [5]: 54%
- kinase still bound, per cent of control [6]: 79%
- kinase still bound, per cent of control [7]: 100%
- kinase still bound, per cent of control [8]: 93%
- kinase still bound, per cent of control [9]: 100%
- kinase still bound, per cent of control [10]: 86%
- kinase still bound, per cent of control [11]: 97%
- kinase still bound, per cent of control [12]: 100%
- kinase still bound, per cent of control [13]: 100%
- kinase still bound, per cent of control [14]: 100%
- kinase still bound, per cent of control [15]: 100%
- kinase still bound, per cent of control [16]: 100%
- kinase still bound, per cent of control [17]: 100%
- kinase still bound, per cent of control [18]: 100%
- kinase still bound, per cent of control [19]: 97%
- kinase still bound, per cent of control [20]: 79%
- kinase still bound, per cent of control [21]: 100%
- kinase still bound, per cent of control [22]: 100%
- kinase still bound, per cent of control [23]: 100%
- kinase still bound, per cent of control [24]: 76%
- kinase still bound, per cent of control [25]: 100%
- kinase still bound, per cent of control [26]: 100%
- kinase still bound, per cent of control [27]: 100%
- kinase still bound, per cent of control [28]: 96%
- kinase still bound, per cent of control [29]: 100%
- kinase still bound, per cent of control [30]: 90%
- kinase still bound, per cent of control [31]: 97%
- kinase still bound, per cent of control [32]: 100%
- kinase still bound, per cent of control [33]: 80%
- kinase still bound, per cent of control [34]: 100%
- kinase still bound, per cent of control [35]: 94%
- kinase still bound, per cent of control [36]: 100%
- kinase still bound, per cent of control [37]: 100%
- kinase still bound, per cent of control [38]: 96%
- kinase still bound, per cent of control [39]: 88%
- kinase still bound, per cent of control [40]: 100%

Compound: O=C1Nc2ccc(I)cc2/C1=C/c1cc(Br)c(O)c(Br)c1
- kinase still bound, per cent of control [1]: 100%
- kinase still bound, per cent of control [2]: 2.7%
- kinase still bound, per cent of control [3]: 90%
- kinase still bound, per cent of control [4]: 100%
- kinase still bound, per cent of control [5]: 76%
- kinase still bound, per cent of control [6]: 100%
- kinase still bound, per cent of control [7]: 100%
- kinase still bound, per cent of control [8]: 65%
- kinase still bound, per cent of control [9]: 68%
- kinase still bound, per cent of control [10]: 76%
- kinase still bound, per cent of control [11]: 83%
- kinase still bound, per cent of control [12]: 96%
- kinase still bound, per cent of control [13]: 100%
- kinase still bound, per cent of control [14]: 17%
- kinase still bound, per cent of control [15]: 84%
- kinase still bound, per cent of control [16]: 8.8%
- kinase still bound, per cent of control [17]: 84%
- kinase still bound, per cent of control [18]: 1.6%
- kinase still bound, per cent of control [19]: 12%
- kinase still bound, per cent of control [20]: 1.7%
- kinase still bound, per cent of control [21]: 95%
- kinase still bound, per cent of control [22]: 2.8%
- kinase still bound, per cent of control [23]: 100%
- kinase still bound, per cent of control [24]: 54%
- kinase still bound, per cent of control [25]: 82%
- kinase still bound, per cent of control [26]: 91%
- kinase still bound, per cent of control [27]: 100%
- kinase still bound, per cent of control [28]: 100%
- kinase still bound, per cent of control [29]: 90%
- kinase still bound, per cent of control [30]: 83%
- kinase still bound, per cent of control [31]: 5.6%
- kinase still bound, per cent of control [32]: 100%
- kinase still bound, per cent of control [33]: 15%
- kinase still bound, per cent of control [34]: 87%
- kinase still bound, per cent of control [35]: 73%
- kinase still bound, per cent of control [36]: 38%
- kinase still bound, per cent of control [37]: 100%
- kinase still bound, per cent of control [38]: 36%
- kinase still bound, per cent of control [39]: 81%
- kinase still bound, per cent of control [40]: 100%

Compound: Cc1ccc(C(=O)Nc2cccc(C(F)(F)F)c2)cc1Nc1cncc(C(N)=O)c1
- kinase still bound, per cent of control [1]: 100%
- kinase still bound, per cent of control [2]: 100%
- kinase still bound, per cent of control [3]: 100%
- kinase still bound, per cent of control [4]: 100%
- kinase still bound, per cent of control [5]: 12%
- kinase still bound, per cent of control [6]: 1.8%
- kinase still bound, per cent of control [7]: 100%
- kinase still bound, per cent of control [8]: 100%
- kinase still bound, per cent of control [9]: 100%
- kinase still bound, per cent of control [10]: 100%
- kinase still bound, per cent of control [11]: 100%
- kinase still bound, per cent of control [12]: 100%
- kinase still bound, per cent of control [13]: 100%
- kinase still bound, per cent of control [14]: 100%
- kinase still bound, per cent of control [15]: 100%
- kinase still bound, per cent of control [16]: 100%
- kinase still bound, per cent of control [17]: 100%
- kinase still bound, per cent of control [18]: 100%
- kinase still bound, per cent of control [19]: 100%
- kinase still bound, per cent of control [20]: 100%
- kinase still bound, per cent of control [21]: 100%
- kinase still bound, per cent of control [22]: 100%
- kinase still bound, per cent of control [23]: 100%
- kinase still bound, per cent of control [24]: 100%
- kinase still bound, per cent of control [25]: 100%
- kinase still bound, per cent of control [26]: 100%
- kinase still bound, per cent of control [27]: 100%
- kinase still bound, per cent of control [28]: 100%
- kinase still bound, per cent of control [29]: 100%
- kinase still bound, per cent of control [30]: 100%
- kinase still bound, per cent of control [31]: 100%
- kinase still bound, per cent of control [32]: 100%
- kinase still bound, per cent of control [33]: 100%
- kinase still bound, per cent of control [34]: 100%
- kinase still bound, per cent of control [35]: 100%
- kinase still bound, per cent of control [36]: 100%
- kinase still bound, per cent of control [37]: 100%
- kinase still bound, per cent of control [38]: 100%
- kinase still bound, per cent of control [39]: 100%
- kinase still bound, per cent of control [40]: 100%
